# According to ChEMBL document CHEMBL3885861, “Open TG-GATES”:
# Species: Rattus norvegicus
# Test: Open TG-GATES - Regimen: Single
# Assay type: toxicity, organism-based, Sprague-Dawley
# Parameters: regimen Single, gender Male, age 6 weeks
# Details: in vivo, po, 6 mg/kg, route gavage, dose level Low; for APTT / Bas / Eos / Fbg / Hb / Ht / Lym / MCH / MCHC / MCV / Mono / Neu / PT / Plat / RBC / Ret / WBC: tissue Blood; for LIVER: tissue Liver; for A/G / ALP / ALT / AST / BUN / CRE / Ca / Cl / DBIL / GLC / IP / K / LDH / Na / PL / RALB / TBIL / TC / TG / TP / gamma-GTP: tissue Plasma
compound,measurement,setting,value
"O=[N+]([O-])c1ccc(O)c([N+](=O)[O-])c1 [2,4-DINITROPHENOL]",TERMINAL_BW,3 h,204.4 g
same,APTT,3 h,17 s
same,Bas,3 h,0%
same,Eos,3 h,0.8%
same,Fbg,3 h,232 mg/dL
same,Hb,3 h,12.9 g/dL
same,Ht,3 h,38.5%
same,Lym,3 h,74.8%
same,MCH,3 h,21.6 pg
same,MCHC,3 h,33.5%
same,MCV,3 h,64.6 fL
same,Mono,3 h,9.6%
same,Neu,3 h,14.8%
same,PT,3 h,12.2 s
same,Plat,3 h,124.6 x10_4/uL
same,RBC,3 h,595.6 x10_4/ul
same,Ret,3 h,9.1%
same,WBC,3 h,105.2 x10_2/uL
same,LIVER,3 h,9.7 g
same,A/G,3 h,2.4
same,ALP,3 h,1437.4 IU/L
same,ALT,3 h,38 IU/L
same,AST,3 h,69 IU/L
same,BUN,3 h,11 mg/dL
same,CRE,3 h,0.4 mg/dL
same,Ca,3 h,11.2 mg/dL
same,Cl,3 h,103.2 meq/L
same,DBIL,3 h,0.014 mg/dL
same,GLC,3 h,185.2 mg/dL
same,IP,3 h,10.4 mg/dL
same,K,3 h,4.3 meq/L
same,LDH,3 h,110.2 IU/L
same,Na,3 h,138.4 meq/L
same,PL,3 h,139.8 mg/dL
same,RALB,3 h,3.8 g/dL
same,TBIL,3 h,0.046 mg/dL
same,TC,3 h,79 mg/dL
same,TG,3 h,57 mg/dL
same,TP,3 h,5.4 g/dL
same,gamma-GTP,3 h,0 IU/L
same,TERMINAL_BW,6 h,202.3 g
same,APTT,6 h,16.3 s
same,Bas,6 h,0%
same,Eos,6 h,1%
same,Fbg,6 h,252.2 mg/dL
same,Hb,6 h,13 g/dL
same,Ht,6 h,38.9%
same,Lym,6 h,73%
same,MCH,6 h,21.3 pg
same,MCHC,6 h,33.4%
same,MCV,6 h,63.9 fL
same,Mono,6 h,10%
same,Neu,6 h,16.4%
same,PT,6 h,12.1 s
same,Plat,6 h,124.2 x10_4/uL
same,RBC,6 h,608.6 x10_4/ul
same,Ret,6 h,9.3%
same,WBC,6 h,116.8 x10_2/uL
same,LIVER,6 h,9.2 g
same,A/G,6 h,2.4
same,ALP,6 h,1588.6 IU/L
same,ALT,6 h,35.4 IU/L
same,AST,6 h,69.2 IU/L
same,BUN,6 h,10.6 mg/dL
same,CRE,6 h,0.4 mg/dL
same,Ca,6 h,10.9 mg/dL
same,Cl,6 h,105.2 meq/L
same,DBIL,6 h,0.012 mg/dL
same,GLC,6 h,198 mg/dL
same,IP,6 h,9.3 mg/dL
same,K,6 h,4.4 meq/L
same,LDH,6 h,135.6 IU/L
same,Na,6 h,139 meq/L
same,PL,6 h,154 mg/dL
same,RALB,6 h,3.9 g/dL
same,TBIL,6 h,0.05 mg/dL
same,TC,6 h,92.4 mg/dL
same,TG,6 h,61.4 mg/dL
same,TP,6 h,5.6 g/dL
same,gamma-GTP,6 h,0 IU/L
same,TERMINAL_BW,9 h,199.2 g
same,APTT,9 h,15.6 s
same,Bas,9 h,0%
same,Eos,9 h,1%
same,Fbg,9 h,244.6 mg/dL
same,Hb,9 h,12.9 g/dL
same,Ht,9 h,38.5%
same,Lym,9 h,72%
same,MCH,9 h,21.7 pg
same,MCHC,9 h,33.5%
same,MCV,9 h,64.7 fL
same,Mono,9 h,12.8%
same,Neu,9 h,14.4%
same,PT,9 h,11.9 s
same,Plat,9 h,125.6 x10_4/uL
same,RBC,9 h,595 x10_4/ul
same,Ret,9 h,8.8%
same,WBC,9 h,87.8 x10_2/uL
same,LIVER,9 h,8.6 g
same,A/G,9 h,2.5
same,ALP,9 h,1398.6 IU/L
same,ALT,9 h,31.4 IU/L
same,AST,9 h,66.2 IU/L
same,BUN,9 h,11.4 mg/dL
same,CRE,9 h,0.4 mg/dL
same,Ca,9 h,11 mg/dL
same,Cl,9 h,104.4 meq/L
same,DBIL,9 h,0.01 mg/dL
same,GLC,9 h,191.4 mg/dL
same,IP,9 h,10.7 mg/dL
same,K,9 h,4.9 meq/L
same,LDH,9 h,145 IU/L
same,Na,9 h,138.4 meq/L
same,PL,9 h,157.4 mg/dL
same,RALB,9 h,3.9 g/dL
same,TBIL,9 h,0.046 mg/dL
same,TC,9 h,93.2 mg/dL
same,TG,9 h,57.6 mg/dL
same,TP,9 h,5.5 g/dL
same,gamma-GTP,9 h,0.2 IU/L
same,TERMINAL_BW,24 h,220.4 g
same,APTT,24 h,15.9 s
same,Bas,24 h,0%
same,Eos,24 h,1.4%
same,Fbg,24 h,237.4 mg/dL
same,Hb,24 h,12.8 g/dL
same,Ht,24 h,38.4%
same,Lym,24 h,72.8%
same,MCH,24 h,21.6 pg
same,MCHC,24 h,33.4%
same,MCV,24 h,64.8 fL
same,Mono,24 h,10.4%
same,Neu,24 h,15.6%
same,PT,24 h,11.6 s
same,Plat,24 h,131.6 x10_4/uL
same,RBC,24 h,593.2 x10_4/ul
same,Ret,24 h,7.8%
same,WBC,24 h,107.2 x10_2/uL
same,LIVER,24 h,11.3 g
same,A/G,24 h,2.5
same,ALP,24 h,1262 IU/L
same,ALT,24 h,38.8 IU/L
same,AST,24 h,64.8 IU/L
same,BUN,24 h,14.8 mg/dL
same,CRE,24 h,0.4 mg/dL
same,Ca,24 h,11.3 mg/dL
same,Cl,24 h,103.2 meq/L
same,DBIL,24 h,0.012 mg/dL
same,GLC,24 h,193.6 mg/dL
same,IP,24 h,7.3 mg/dL
same,K,24 h,4.6 meq/L
same,LDH,24 h,105 IU/L
same,Na,24 h,139.4 meq/L
same,PL,24 h,159.6 mg/dL
same,RALB,24 h,4 g/dL
same,TBIL,24 h,0.034 mg/dL
same,TC,24 h,90 mg/dL
same,TG,24 h,116 mg/dL
same,TP,24 h,5.6 g/dL
same,gamma-GTP,24 h,0.4 IU/L
